Results reported in the kinase profiling compilation of Christmann-Franck et al. (2016).

What was measured:
Experiment in all cases: Caliper, Mobility shift assay off-chip
[1] = target: MAPK13 (human) (UniProt O15264)
[2] = target: FLT3 (human) (UniProt P36888)
[3] = target: ALK (human) (UniProt Q9UM73)
[4] = target: PAK4 (human) (UniProt O96013)
[5] = target: MAPK14 (human) (UniProt Q16539)
[6] = target: IGF1R (human) (UniProt P08069)
[7] = target: BRSK2 (human) (UniProt Q8IWQ3)
[8] = target: PRKCG (human) (UniProt P05129)
[9] = target: RAF1 (human) (UniProt P04049)
[10] = target: FGFR3 (human) (UniProt P22607)
[11] = target: EGFR (human) (UniProt P00533)
[12] = target: NEK2 (human) (UniProt P51955)
[13] = target: RPS6KA1 KD1 KD2 (human) (UniProt Q15418)
[14] = target: MAP3K7 (human) (UniProt O43318)
[15] = target: KDR (human) (UniProt P35968)
[16] = target: BTK (human) (UniProt Q06187)
Sequence of BTK (human) (Q06187 whole entry, looked up): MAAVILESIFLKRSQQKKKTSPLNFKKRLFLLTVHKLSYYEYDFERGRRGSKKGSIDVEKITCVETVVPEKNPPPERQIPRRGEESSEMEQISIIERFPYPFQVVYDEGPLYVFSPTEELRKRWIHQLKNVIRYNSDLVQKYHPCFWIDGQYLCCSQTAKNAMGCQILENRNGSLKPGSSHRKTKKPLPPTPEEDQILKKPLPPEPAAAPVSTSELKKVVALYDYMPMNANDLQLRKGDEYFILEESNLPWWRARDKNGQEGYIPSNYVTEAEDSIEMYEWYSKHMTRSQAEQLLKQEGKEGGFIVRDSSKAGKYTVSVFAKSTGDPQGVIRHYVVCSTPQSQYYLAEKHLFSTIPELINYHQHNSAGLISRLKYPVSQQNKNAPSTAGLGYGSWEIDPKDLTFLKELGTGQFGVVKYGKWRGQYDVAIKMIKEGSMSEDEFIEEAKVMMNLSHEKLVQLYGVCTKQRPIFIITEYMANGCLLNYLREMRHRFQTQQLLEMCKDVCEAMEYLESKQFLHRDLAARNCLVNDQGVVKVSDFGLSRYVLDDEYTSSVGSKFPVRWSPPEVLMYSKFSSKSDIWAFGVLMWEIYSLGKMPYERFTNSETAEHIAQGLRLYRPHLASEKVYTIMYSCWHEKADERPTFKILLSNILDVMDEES

[17] = target: MAPK12 (human) (UniProt P53778)
[18] = target: NEK6 (human) (UniProt Q9HC98)
Sequence of NEK6 (human) (Q9HC98 whole entry, looked up): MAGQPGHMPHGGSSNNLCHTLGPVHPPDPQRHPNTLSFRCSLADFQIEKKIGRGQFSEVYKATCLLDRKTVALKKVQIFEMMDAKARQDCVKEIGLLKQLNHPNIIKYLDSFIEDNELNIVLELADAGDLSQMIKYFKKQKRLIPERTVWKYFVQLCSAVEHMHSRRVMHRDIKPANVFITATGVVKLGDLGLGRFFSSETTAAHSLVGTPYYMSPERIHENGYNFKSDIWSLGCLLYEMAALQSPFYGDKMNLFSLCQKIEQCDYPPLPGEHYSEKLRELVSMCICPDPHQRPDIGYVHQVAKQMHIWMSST

[19] = target: FGFR1 (human) (UniProt P11362)
[20] = target: KIT (human) (UniProt P10721)
Sequence of KIT (human) (P10721 whole entry, looked up): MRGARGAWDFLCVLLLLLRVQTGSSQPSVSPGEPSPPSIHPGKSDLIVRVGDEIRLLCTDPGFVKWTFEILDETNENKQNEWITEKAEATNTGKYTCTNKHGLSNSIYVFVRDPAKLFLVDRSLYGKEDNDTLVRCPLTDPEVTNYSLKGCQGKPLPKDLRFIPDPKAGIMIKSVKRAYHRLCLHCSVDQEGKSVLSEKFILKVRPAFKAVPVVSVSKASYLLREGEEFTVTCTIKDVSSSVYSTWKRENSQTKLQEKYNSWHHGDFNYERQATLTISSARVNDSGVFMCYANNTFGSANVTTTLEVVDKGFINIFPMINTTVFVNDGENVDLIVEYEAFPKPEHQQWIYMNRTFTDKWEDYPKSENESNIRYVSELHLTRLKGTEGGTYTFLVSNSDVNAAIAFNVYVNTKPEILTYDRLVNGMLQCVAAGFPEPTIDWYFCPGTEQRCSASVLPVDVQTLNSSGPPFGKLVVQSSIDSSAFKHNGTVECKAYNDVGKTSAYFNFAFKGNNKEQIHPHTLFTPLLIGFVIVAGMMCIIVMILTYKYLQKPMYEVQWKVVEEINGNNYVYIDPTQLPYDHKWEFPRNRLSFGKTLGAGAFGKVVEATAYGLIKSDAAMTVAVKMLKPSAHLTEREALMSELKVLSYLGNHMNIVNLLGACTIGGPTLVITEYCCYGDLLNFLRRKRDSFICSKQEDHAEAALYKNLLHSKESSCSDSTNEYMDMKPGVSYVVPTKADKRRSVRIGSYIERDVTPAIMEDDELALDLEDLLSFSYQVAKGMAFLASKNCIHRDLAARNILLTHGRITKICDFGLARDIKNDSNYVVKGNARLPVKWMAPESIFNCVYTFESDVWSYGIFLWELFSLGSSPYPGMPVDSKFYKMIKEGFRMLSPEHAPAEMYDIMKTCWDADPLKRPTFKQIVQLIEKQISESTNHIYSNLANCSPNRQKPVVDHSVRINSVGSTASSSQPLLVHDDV

[21] = target: PLK3 (human) (UniProt Q9H4B4)
[22] = target: PRKCI (human) (UniProt P41743)
[23] = target: PIM2 (human) (UniProt Q9P1W9)
[24] = target: RPS6KB1 (human) (UniProt P23443)
[25] = target: RPS6KA5 KD1 KD2 (human) (UniProt O75582)
[26] = target: MAPKAPK5 (human) (UniProt Q8IW41)
[27] = target: CDK2 CCNA2 (human) (UniProt P24941+P20248)
[28] = target: MAPK8 (human) (UniProt P45983)
[29] = target: RIPK2 (human) (UniProt O43353)
[30] = target: EPHA4 (human) (UniProt P54764)
[31] = target: CHEK1 (human) (UniProt O14757)
Sequence of CHEK1 (human) (O14757 whole entry, looked up): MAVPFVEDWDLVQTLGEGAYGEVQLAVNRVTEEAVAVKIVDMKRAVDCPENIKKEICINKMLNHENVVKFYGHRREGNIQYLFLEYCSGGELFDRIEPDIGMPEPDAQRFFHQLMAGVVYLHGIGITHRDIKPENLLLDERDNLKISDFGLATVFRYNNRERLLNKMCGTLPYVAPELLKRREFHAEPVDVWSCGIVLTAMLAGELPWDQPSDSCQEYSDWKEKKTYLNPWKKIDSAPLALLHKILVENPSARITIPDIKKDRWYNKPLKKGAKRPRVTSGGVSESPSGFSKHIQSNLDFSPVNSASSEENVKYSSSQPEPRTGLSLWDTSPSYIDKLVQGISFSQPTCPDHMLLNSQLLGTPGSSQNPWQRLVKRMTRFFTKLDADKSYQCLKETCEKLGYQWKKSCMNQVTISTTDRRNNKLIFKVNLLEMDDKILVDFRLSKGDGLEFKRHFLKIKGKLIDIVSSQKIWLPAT

[32] = target: EPHA2 (human) (UniProt P29317)
[33] = target: MAPK11 (human) (UniProt Q15759)
[34] = target: CSK (human) (UniProt P41240)
Sequence of CSK (human) (P41240 whole entry, looked up): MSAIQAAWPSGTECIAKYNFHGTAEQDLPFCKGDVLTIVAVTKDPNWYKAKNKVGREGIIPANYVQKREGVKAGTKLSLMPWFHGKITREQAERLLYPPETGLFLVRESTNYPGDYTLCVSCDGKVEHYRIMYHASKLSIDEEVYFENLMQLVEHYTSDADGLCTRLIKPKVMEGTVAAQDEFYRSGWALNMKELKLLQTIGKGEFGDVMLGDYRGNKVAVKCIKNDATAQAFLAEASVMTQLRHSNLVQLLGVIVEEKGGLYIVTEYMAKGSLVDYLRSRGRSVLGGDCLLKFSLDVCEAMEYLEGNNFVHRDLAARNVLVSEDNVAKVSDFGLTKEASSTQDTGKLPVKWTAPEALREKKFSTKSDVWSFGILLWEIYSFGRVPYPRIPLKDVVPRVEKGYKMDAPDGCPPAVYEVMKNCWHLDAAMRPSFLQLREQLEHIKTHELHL

[35] = target: ZAP70 (human) (UniProt P43403)
[36] = target: IKBKB (human) (UniProt O14920)
[37] = target: AKT1 (human) (UniProt P31749)
Sequence of AKT1 (human) (P31749 whole entry, looked up): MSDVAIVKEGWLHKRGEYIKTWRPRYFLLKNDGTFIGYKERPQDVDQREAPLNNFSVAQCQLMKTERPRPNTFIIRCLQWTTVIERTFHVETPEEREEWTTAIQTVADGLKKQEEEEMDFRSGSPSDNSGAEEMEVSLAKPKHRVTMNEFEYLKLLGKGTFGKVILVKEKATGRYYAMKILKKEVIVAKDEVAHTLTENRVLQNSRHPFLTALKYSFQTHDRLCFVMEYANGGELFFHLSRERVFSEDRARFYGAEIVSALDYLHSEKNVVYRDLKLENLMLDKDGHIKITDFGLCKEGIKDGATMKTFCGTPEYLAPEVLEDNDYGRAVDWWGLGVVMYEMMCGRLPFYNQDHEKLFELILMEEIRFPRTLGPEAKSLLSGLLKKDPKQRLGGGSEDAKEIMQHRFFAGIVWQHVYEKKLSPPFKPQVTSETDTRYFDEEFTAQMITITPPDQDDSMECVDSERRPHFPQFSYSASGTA

[38] = target: TEK (human) (UniProt Q02763)
[39] = target: PRKCA (human) (UniProt P17252)
[40] = target: SRC (human) (UniProt P12931)
[41] = target: MAPKAPK2 (human) (UniProt P49137)

Sequence of FLT3 (human) (P36888 whole entry, looked up): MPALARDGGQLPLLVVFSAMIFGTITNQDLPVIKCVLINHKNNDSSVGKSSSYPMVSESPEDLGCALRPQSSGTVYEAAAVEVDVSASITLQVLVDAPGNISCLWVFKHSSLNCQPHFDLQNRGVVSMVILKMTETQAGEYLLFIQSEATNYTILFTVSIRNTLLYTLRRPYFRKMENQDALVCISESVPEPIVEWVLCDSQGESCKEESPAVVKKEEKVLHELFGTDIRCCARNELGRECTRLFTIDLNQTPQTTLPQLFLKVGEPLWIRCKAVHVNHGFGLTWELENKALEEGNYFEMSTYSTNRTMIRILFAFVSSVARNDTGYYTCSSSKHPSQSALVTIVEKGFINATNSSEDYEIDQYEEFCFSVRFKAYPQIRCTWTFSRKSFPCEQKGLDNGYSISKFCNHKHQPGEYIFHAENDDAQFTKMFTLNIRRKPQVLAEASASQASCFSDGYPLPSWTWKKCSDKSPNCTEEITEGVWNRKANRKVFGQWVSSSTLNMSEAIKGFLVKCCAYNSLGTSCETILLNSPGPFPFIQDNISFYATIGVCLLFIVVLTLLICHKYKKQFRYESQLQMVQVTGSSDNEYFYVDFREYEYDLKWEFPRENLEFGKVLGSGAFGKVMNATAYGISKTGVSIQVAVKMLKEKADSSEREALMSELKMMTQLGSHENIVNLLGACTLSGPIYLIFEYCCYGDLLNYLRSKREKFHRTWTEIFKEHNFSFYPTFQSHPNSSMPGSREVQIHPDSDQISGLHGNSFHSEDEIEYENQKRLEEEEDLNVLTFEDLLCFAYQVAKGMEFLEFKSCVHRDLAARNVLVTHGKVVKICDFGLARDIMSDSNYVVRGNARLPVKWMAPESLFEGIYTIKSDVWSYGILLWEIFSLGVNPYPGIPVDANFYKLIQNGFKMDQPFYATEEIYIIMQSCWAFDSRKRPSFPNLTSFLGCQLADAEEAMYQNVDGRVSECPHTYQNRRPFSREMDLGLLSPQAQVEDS
Sequence of PAK4 (human) (O96013 whole entry, looked up): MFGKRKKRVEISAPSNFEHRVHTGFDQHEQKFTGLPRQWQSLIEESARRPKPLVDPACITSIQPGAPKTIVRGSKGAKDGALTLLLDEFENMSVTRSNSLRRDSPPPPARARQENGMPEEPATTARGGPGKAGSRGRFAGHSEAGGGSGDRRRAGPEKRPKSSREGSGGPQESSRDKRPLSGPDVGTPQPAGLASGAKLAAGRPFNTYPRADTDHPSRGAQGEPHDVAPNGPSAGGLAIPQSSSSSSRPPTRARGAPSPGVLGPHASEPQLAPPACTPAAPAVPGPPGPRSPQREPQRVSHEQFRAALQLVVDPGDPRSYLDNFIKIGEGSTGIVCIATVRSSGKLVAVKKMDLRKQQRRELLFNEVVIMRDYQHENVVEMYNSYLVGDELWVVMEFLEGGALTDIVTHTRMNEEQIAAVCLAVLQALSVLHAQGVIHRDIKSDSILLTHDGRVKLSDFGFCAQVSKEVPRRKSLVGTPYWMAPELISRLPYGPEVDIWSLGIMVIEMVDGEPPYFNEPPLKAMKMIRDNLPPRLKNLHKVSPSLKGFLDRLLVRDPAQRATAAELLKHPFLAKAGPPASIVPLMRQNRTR

CC(C)(C)c1nc2c3ccc(F)cc3c3c(=O)[nH]ccc3c2[nH]1
residual activity ([1]; compound 10.0 µM): 46%
residual activity ([2]; compound 10.0 µM): 25%
residual activity ([3]; compound 10.0 µM): 26%
residual activity ([4]; compound 10.0 µM): 78%
residual activity ([5]; compound 10.0 µM): 51%
residual activity ([6]; compound 10.0 µM): 61%
residual activity ([7]; compound 10.0 µM): 1%
residual activity ([8]; compound 10.0 µM): 21%
residual activity ([9]; compound 10.0 µM): 128%
residual activity ([10]; compound 10.0 µM): 30%
residual activity ([11]; compound 10.0 µM): 75%
residual activity ([12]; compound 10.0 µM): 96%
residual activity ([13]; compound 10.0 µM): 68%
residual activity ([14]; compound 10.0 µM): 12%
residual activity ([15]; compound 10.0 µM): 92%
residual activity ([16]; compound 10.0 µM): 83%
residual activity ([17]; compound 10.0 µM): 46%
residual activity ([18]; compound 10.0 µM): 48%
residual activity ([19]; compound 10.0 µM): 32%
residual activity ([20]; compound 10.0 µM): 40%
residual activity ([21]; compound 10.0 µM): 54%
residual activity ([22]; compound 10.0 µM): 73%
residual activity ([23]; compound 10.0 µM): 36%
residual activity ([24]; compound 10.0 µM): 17%
residual activity ([25]; compound 10.0 µM): 25%
residual activity ([26]; compound 10.0 µM): 17%
residual activity ([27]; compound 10.0 µM): 53%
residual activity ([28]; compound 10.0 µM): 10%
residual activity ([29]; compound 10.0 µM): 20%
residual activity ([30]; compound 10.0 µM): 101%
residual activity ([31]; compound 10.0 µM): 10%
residual activity ([32]; compound 10.0 µM): 96%
residual activity ([33]; compound 10.0 µM): 25%
residual activity ([34]; compound 10.0 µM): 101%
residual activity ([35]; compound 10.0 µM): 117%
residual activity ([36]; compound 10.0 µM): 15%
residual activity ([37]; compound 10.0 µM): 39%
residual activity ([38]; compound 10.0 µM): 105%
residual activity ([39]; compound 10.0 µM): 8%
residual activity ([40]; compound 10.0 µM): 94%
residual activity ([41]; compound 10.0 µM): 17%

COc1ccc(C#Cc2ccc3ncc4ncn(-c5ccc(CCN)cc5)c4c3c2)cc1
residual activity ([1]; compound 10.0 µM): 43%
residual activity ([2]; compound 10.0 µM): 8%
residual activity ([3]; compound 10.0 µM): 42%
residual activity ([4]; compound 10.0 µM): 106%
residual activity ([5]; compound 10.0 µM): 72%
residual activity ([6]; compound 10.0 µM): 66%
residual activity ([7]; compound 10.0 µM): 57%
residual activity ([8]; compound 10.0 µM): 88%
residual activity ([9]; compound 10.0 µM): 94%
residual activity ([10]; compound 10.0 µM): 25%
residual activity ([11]; compound 10.0 µM): 71%
residual activity ([12]; compound 10.0 µM): 80%
residual activity ([13]; compound 10.0 µM): 13%
residual activity ([14]; compound 10.0 µM): 83%
residual activity ([15]; compound 10.0 µM): 50%
residual activity ([16]; compound 10.0 µM): 75%
residual activity ([17]; compound 10.0 µM): 85%
residual activity ([18]; compound 10.0 µM): 109%
residual activity ([19]; compound 10.0 µM): 4%
residual activity ([20]; compound 10.0 µM): 71%
residual activity ([21]; compound 10.0 µM): 110%
residual activity ([22]; compound 10.0 µM): 107%
residual activity ([23]; compound 10.0 µM): 24%
residual activity ([24]; compound 10.0 µM): 0%
residual activity ([25]; compound 10.0 µM): 39%
residual activity ([26]; compound 10.0 µM): 50%
residual activity ([27]; compound 10.0 µM): 118%
residual activity ([28]; compound 10.0 µM): 55%
residual activity ([29]; compound 10.0 µM): 78%
residual activity ([30]; compound 10.0 µM): 77%
residual activity ([31]; compound 10.0 µM): 75%
residual activity ([32]; compound 10.0 µM): 95%
residual activity ([33]; compound 10.0 µM): 81%
residual activity ([34]; compound 10.0 µM): 82%
residual activity ([35]; compound 10.0 µM): 99%
residual activity ([36]; compound 10.0 µM): 39%
residual activity ([37]; compound 10.0 µM): 25%
residual activity ([38]; compound 10.0 µM): 5%
residual activity ([39]; compound 10.0 µM): 94%
residual activity ([40]; compound 10.0 µM): 14%
residual activity ([41]; compound 10.0 µM): 78%

Cc1n[nH]c2c1c(=O)n(CCCN)c1ccc(Cl)cc21
residual activity ([1]; compound 1.0 µM): 97%
residual activity ([2]; compound 1.0 µM): 25%
residual activity ([3]; compound 1.0 µM): 116%
residual activity ([4]; compound 1.0 µM): 69%
residual activity ([5]; compound 1.0 µM): 94%
residual activity ([6]; compound 1.0 µM): 145%
residual activity ([7]; compound 1.0 µM): 18%
residual activity ([8]; compound 1.0 µM): 75%
residual activity ([9]; compound 1.0 µM): 106%
residual activity ([10]; compound 1.0 µM): 102%
residual activity ([11]; compound 1.0 µM): 110%
residual activity ([12]; compound 1.0 µM): 118%
residual activity ([13]; compound 1.0 µM): 2%
residual activity ([14]; compound 1.0 µM): 56%
residual activity ([15]; compound 1.0 µM): 95%
residual activity ([16]; compound 1.0 µM): 95%
residual activity ([17]; compound 1.0 µM): 107%
residual activity ([18]; compound 1.0 µM): 101%
residual activity ([19]; compound 1.0 µM): 43%
residual activity ([20]; compound 1.0 µM): 112%
residual activity ([21]; compound 1.0 µM): 95%
residual activity ([22]; compound 1.0 µM): 114%
residual activity ([23]; compound 1.0 µM): 92%
residual activity ([24]; compound 1.0 µM): 76%
residual activity ([25]; compound 1.0 µM): 68%
residual activity ([26]; compound 1.0 µM): 80%
residual activity ([27]; compound 1.0 µM): 104%
residual activity ([28]; compound 1.0 µM): 106%
residual activity ([29]; compound 1.0 µM): 93%
residual activity ([30]; compound 1.0 µM): 104%
residual activity ([31]; compound 1.0 µM): 5%
residual activity ([32]; compound 1.0 µM): 107%
residual activity ([33]; compound 1.0 µM): 99%
residual activity ([34]; compound 1.0 µM): 110%
residual activity ([35]; compound 1.0 µM): 114%
residual activity ([36]; compound 1.0 µM): 104%
residual activity ([37]; compound 1.0 µM): 102%
residual activity ([38]; compound 1.0 µM): 106%
residual activity ([39]; compound 1.0 µM): 107%
residual activity ([40]; compound 1.0 µM): 104%
residual activity ([41]; compound 1.0 µM): 88%
